For series [1], the system named is panel of six multidrug resistant clinical HIV-1 variants. The series is described as follows: microbe, parasite or virus in culture. The class given is cell-based. As to conditions: Human immunodeficiency virus 1, read-out: EC50 range across the panel.
The subject of a further series is HIV-1MDR/TM(X4). The series is described as follows: microbe, parasite or virus in culture. The class given is cell-based. As to conditions: for fold change of EC50 compared to wild-type HIV-1ERS104pre: number in parentheses.
The next series deals with HIV-1MDR/G(X4). In words: microbe, parasite or virus in culture. It counts as cell-based. As to conditions: for fold change of EC50 compared to wild-type HIV-1ERS104pre: number in parentheses.
The subject of another series is HIV-1MDR/B(X4). The series is described as follows: microbe, parasite or virus in culture. The settings on record: for fold change of EC50 compared to wild-type HIV-1ERS104pre: number in parentheses. The class given is cell-based.
For a further series, the system named is HIV-1MDR/MM(R5). In words: microbe, parasite or virus in culture. As to conditions: for fold change of EC50 compared to wild-type HIV-1ERS104pre: number in parentheses. It counts as cell-based.
The next series has as its system HIV-1MDR/JSL(R5). The series is described as follows: microbe, parasite or virus in culture. It counts as cell-based. As to conditions: for fold change of EC50 compared to wild-type HIV-1ERS104pre: number in parentheses.
Another series concerns HIV-1MDR/C(X4). In words: microbe, parasite or virus in culture. The class given is cell-based. The settings on record: for fold change of EC50 compared to wild-type HIV-1ERS104pre: number in parentheses.
For series [2], the system named is HIV-1ERS104pre (wild-type X4). The series is described as follows: Antiviral activity in PHA-PBMs, p24 Gag production, wild-type clinical isolate. The class given is cell-based.
The nature of series [3]: In vitro blood-brain-barrier model, triple co-culture drug transport assay. The settings on record: rat, monkey.
The next series relates to HIV-1LAI. The series is described as follows: Antiviral activity in MT-2 cells exposed to HIV-1LAI, MTT assay. The class given is cell-based. On the technique in general: Formazan colour is commonly taken as a measure of viable cells.
In series [4] the test system is in vitro BBB model (rat astrocytes, pericytes and monkey endothelial cells).
Series [5] deals with MT-2 human T-lymphoid cells.
Setting [6] is: Human immunodeficiency virus 1, T-lymphoid, in Homo sapiens.
Where [7] appears, read: PHA-PBMs, p24 Gag production, mean ± 1 SD.

Molecules are shown by their SMILES.

A word on the EC50: it is the concentration needed to bring the measured effect to its halfway point. For `CC(C)CN(C[C@@H](O)[C@H](Cc1ccccc1)NC(=O)O[C@H]1CCOC1)S(=O)(=O)c1ccc(N)cc1` [APV, amprenavir, reference compound], the EC50 in series [1] was 0.21 to 0.63 µM; in the series on HIV-1MDR/G(X4) (Human immunodeficiency virus 1), 0.31 ± 0.08 µM; with HIV-1MDR/B(X4) (Human immunodeficiency virus 1), 0.49 ± 0.05 µM; in the series with HIV-1MDR/MM(R5) (Human immunodeficiency virus 1), 0.63 ± 0.009 µM; with HIV-1MDR/JSL(R5) (Human immunodeficiency virus 1), 0.27 ± 0.01 µM; in the series with HIV-1MDR/C(X4) (Human immunodeficiency virus 1), 0.21 ± 0.02 µM. For the same compound, the “fold change of EC50 compared to wild-type HIV-1ERS104pre” value (from here on “fold change of EC50”) with HIV-1MDR/TM(X4) was 12; in the series on HIV-1MDR/G(X4) it was 11; in the series with HIV-1MDR/B(X4), 15; in the series on HIV-1MDR/MM(R5) it was 22; in the series with HIV-1MDR/JSL(R5), 9; in the series on HIV-1MDR/C(X4), 7.

Broadly, the Papp is the rate of passage across a membrane or cell layer, normalised by area and donor concentration. As to `CC(C)CN(C[C@@H](O)[C@H](Cc1ccccc1)NC(=O)O[C@H]1CO[C@H]2OCC[C@H]21)S(=O)(=O)c1ccc(N)cc1` [Darunavir, darunavir, reference compound], the concentration for a half-maximal effect (EC50) in the series with HIV-1MDR/TM(X4) (Human immunodeficiency virus 1) was 0.03 ± 0.01 µM; in [2] (Human immunodeficiency virus 1) it was 0.004 ± 0.001 µM; in the series on HIV-1MDR/G(X4) (Human immunodeficiency virus 1) it was 0.014 ± 0.009 µM; in the series with HIV-1MDR/MM(R5) (Human immunodeficiency virus 1), 0.025 ± 0.002 µM; with HIV-1LAI (setting [6]), 0.005 µM; with HIV-1MDR/JSL(R5) (Human immunodeficiency virus 1), 0.01 ± 0.001 µM. For the same compound, in the series with HIV-1MDR/C(X4) (Human immunodeficiency virus 1), the EC50 was 0.005 ± 0.001 µM. In series [3], the apparent permeability (Papp) at 30 min, 100 μM worked out at 9.32 ± 2.25 ×10⁻⁶ cm/s.

The CC50 is the concentration giving 50% cytotoxicity. For `COc1ccc(S(=O)(=O)N(CC(C)C)C[C@@H](O)[C@H](Cc2ccccc2)NC(=O)OC2CO[C@H]3OCC(F)(F)[C@@H]23)cc1` (stereo partly drawn) [Inhibitor 3], the EC50 is 0.004 ± 0.001 µM with HIV-1MDR/TM(X4) (setting [7]); 0.0023 ± 0.0001 µM in series [2] (setting [7]); 0.004 ± 0.001 µM in the series with HIV-1MDR/G(X4) (setting [7]); 0.014 ± 0.001 µM with HIV-1MDR/B(X4) (setting [7]); 0.021 ± 0.004 µM with HIV-1MDR/MM(R5) (setting [7]); 0.002 ± 0.001 µM in the series on HIV-1MDR/JSL(R5) (setting [7]). The same compound came in with an EC50 in the series on HIV-1MDR/C(X4) (setting [7]) of 0.002 ± 0.001 µM. Also, the “fold change of EC50” value with HIV-1MDR/TM(X4) was determined as 2; with HIV-1MDR/G(X4) it was 2; in the series on HIV-1MDR/B(X4), 7; in the series on HIV-1MDR/MM(R5) it was 10; in the series with HIV-1MDR/JSL(R5) it was 1; in the series on HIV-1MDR/C(X4), 1. Further, the “Papp (apparent permeability coefficient)” value in series [4] is 50.38 ± 10.61 10^−6 cm/s. Further, it took 17.5 µM to reach half-maximal cytotoxicity in [5] (CC50).

Regarding `CC(C)CN(C[C@@H](O)[C@H](Cc1ccccc1)NC(=O)O[C@H]1CO[C@H]2OCC(F)(F)[C@H]21)S(=O)(=O)c1ccc(N)cc1` [Inhibitor 4], the EC50 with HIV-1MDR/TM(X4) (setting [7]) is 0.004 ± 0.001 µM; in series [2] (setting [7]), 0.0027 ± 0.0003 µM; with HIV-1MDR/G(X4) (setting [7]), 0.004 ± 0.001 µM; in the series with HIV-1MDR/B(X4) (setting [7]), 0.011 ± 0.001 µM; in the series on HIV-1MDR/MM(R5) (setting [7]), 0.02 ± 0.0002 µM; in the series with HIV-1LAI (MT-2 human T-lymphoid cells exposed to HIVLAI), 0.003 µM. Also, in the series on HIV-1MDR/C(X4) (setting [7]), the EC50 was 0.002 ± 0.001 µM. For the same compound, the “fold change of EC50” value came to 2 in the series with HIV-1MDR/TM(X4); 1 in the series on HIV-1MDR/G(X4); 3 in the series on HIV-1MDR/B(X4); 7 in the series with HIV-1MDR/MM(R5); 1 with HIV-1MDR/JSL(R5); 1 in the series with HIV-1MDR/C(X4). Also, in series [4], the “Papp (apparent permeability coefficient)” value is 60.84 ± 3.97 10^−6 cm/s. The same compound yielded a CC50 in series [5] of 37 µM.

In the case of `CC(C)(C)NC(=O)[C@@H]1C[C@@H]2CCCC[C@@H]2CN1C[C@@H](O)[C@H](Cc1ccccc1)NC(=O)[C@H](CC(N)=O)NC(=O)c1ccc2ccccc2n1` [saquinavir], a half-maximal effect with HIV-1LAI (setting [6]) (EC50) was put at 0.021 µM.

(Values after paper PMC4419590 (ChemMedChem, 2014).)
